Test results from patent US8017612B2, “Piperazine compound and use thereof as a HCV polymerase inhibitor” (priority 2006, dated 2011).

Assays:
[1] = target: T1, HCV polymerase (NS5B) type 1b (Hepatitis C virus genotype 1b, UniProt P26663); test: Assay of enzyme (HCV polymerase) inhibitory activity, type 1b enzyme; format: biochemical, HCV BK strain (type 1b); conditions: HCV polymerase inhibitory activity IC50, 1b, type 1b enzyme
T1 construct: a region encoding NS5B (J Virol 1991 March, 65(3), 1105-13, 544 amino acids after deletion of 47 amino acids on the C-terminal); 6xHis (C); made in house; host or cells: Escherichia coli
Outline: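 NS5B from HCV BK strain (type 1b), C-terminal 47 aa deleted, C-terminal His6-tagged, E. coli-expressed, 0.5 μg/ml, with ~450 nt substrate RNA carrying the 3′ UTR (polyU, 3′X) at 5 μg/ml. Incubation 60 min at 25 °C with 50 μM ATP/GTP/CTP, 2 μM UTP plus [3H]UTP, pH 7.5 Tris.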

[2] = target: T2, HCV polymerase (NS5B) type 1a (Hepatitis C virus genotype 1a, UniProt P26664); test: Assay of enzyme (HCV polymerase) inhibitory activity, type 1a enzyme; format: biochemical, HCV type 1a (cloned from the blood of patients); conditions: HCV polymerase inhibitory activity IC50, 1a, type 1a enzyme
T2 construct: made in house; host or cells: Escherichia coli (by the 'similar method' of the 1b enzyme)
Outline: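 Patient-derived type 1a NS5B (C-terminal 47-aa deletion, His-tagged, E. coli-expressed) at 1.5 μg/ml was reacted with 5 μg/ml 3′UTR-containing substrate RNA, 50 μM ATP/GTP/CTP, 2 μM UTP plus [3H]UTP, pH 7.5, 25° C for 60 min. TCA-precipitated RNA radioactivity was counted; IC50 from ± compound.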

In the case of `Cc1nnc2sc(N3CCN(S(=O)(=O)c4ccc(OC(F)(F)F)cc4)[C@@H](C(=O)NCc4ccc(OC(F)(F)F)cc4)C3)nn12` [Example 933, (R)-4-(3-methyl-[1,2,4]triazolo[3,4-b][1,3,4]thiadiazol-6-yl)-1-(4-trifluoromethoxy-benzenesulfonyl)-piperazine-2-carboxylic acid 4-trifluoromethoxy-benzylamide], the IC50 [1] is reported as less than 100 nM and the IC50 [2] is reported as less than 100 nM.
`CCC(F)(F)c1ccc(CNC(=O)[C@H]2CN(c3nc4nc(C)nc(Cl)c4s3)CCN2S(=O)(=O)c2ccc(C(F)(F)F)cc2)cc1` [Example 934, (R)-4-(7-chloro-5-methyl-thiazolo[4,5-d]pyrimidin-2-yl)-1-(4-trifluoromethyl-benzenesulfonyl)-piperazine-2-carboxylic acid 4-(1,1-difluoro-propyl)-benzylamide] showed an IC50 [1] of less than 100 nM and an IC50 [2] of less than 100 nM.
Molecule `CCC(F)(F)c1ccc(CNC(=O)[C@H]2CN(c3nc4nc(C)ncc4s3)CCN2S(=O)(=O)c2ccc(C(F)(F)F)cc2)cc1` [Example 935, (R)-4-(5-methyl-thiazolo[4,5-d]pyrimidin-2-yl)-1-(4-trifluoromethyl-benzenesulfonyl)-piperazine-2-carboxylic acid 4-(1,1-difluoro-propyl)-benzylamide] has an IC50 [1] of less than 100 nM and an IC50 [2] of less than 100 nM.
`O=C(NCc1ccc(OC(F)(F)F)cc1)[C@H]1CN(C(=O)Nc2nnc(Br)s2)CCN1S(=O)(=O)c1ccc(OC(F)(F)F)cc1` [Example 936, (R)-4-(4-trifluoromethoxy-benzenesulfonyl)-piperazine-1,3-dicarboxylic acid 1-[(5-bromo-[1,3,4]thiadiazol-2-yl)-amide] 3-(4-trifluoromethoxy-benzylamide)] gave an IC50 [1] greater than 1000 nM and an IC50 [2] greater than 1000 nM.
Molecule `O=C(NCc1ccc(OC(F)(F)F)cc1)[C@H]1CN(c2nc3c(=O)[nH]ncc3s2)CCN1S(=O)(=O)c1ccc(OC(F)(F)F)cc1` [Example 937, (R)-4-(4-oxo-4,5-dihydro-thiazolo[4,5-d]pyridazin-2-yl)-1-(4-trifluoromethoxy-benzenesulfonyl)-piperazine-2-carboxylic acid 4-trifluoromethoxy-benzylamide] has an IC50 [1] of less than 100 nM and an IC50 [2] of less than 100 nM.
Molecule `COC(F)(F)c1ccc(CNC(=O)[C@H]2CN(c3nc4cn[nH]c(=O)c4s3)CCN2S(=O)(=O)c2ccc(OC(F)(F)F)cc2)cc1` [Example 938, (R)-4-(7-oxo-6,7-dihydro-thiazolo[4,5-d]pyridazin-2-yl)-1-(4-trifluoromethoxy-benzenesulfonyl)-piperazine-2-carboxylic acid 4-(difluoro-methoxy-methyl)-benzylamide] has an IC50 [1] of less than 100 nM and an IC50 [2] of 100 to 1000 nM.
`O=C(NCc1ccc(OC(F)(F)F)cc1)[C@H]1CN(c2nc3c(CO)nncc3s2)CCN1S(=O)(=O)c1ccc(OC(F)(F)F)cc1` [Example 940, (R)-4-(4-hydroxymethyl-thiazolo[4,5-d]pyridazin-2-yl)-1-(4-trifluoromethoxy-benzenesulfonyl)-piperazine-2-carboxylic acid 4-trifluoromethoxy-benzylamide] was tested, and the IC50 [1] was less than 100 nM and the IC50 [2] was less than 100 nM.
For `Cc1nc(Cl)c2sc(N3CCN(S(=O)(=O)c4ccc(OC(F)(F)F)cc4)[C@@H](C(=O)NCc4ccc(OC(F)F)cc4)C3)nc2n1` [Example 941, (R)-4-(7-chloro-5-methyl-thiazolo[4,5-d]pyrimidin-2-yl)-1-(4-trifluoromethoxy-benzenesulfonyl)-piperazine-2-carboxylic acid 4-difluoromethoxy-benzylamide], the IC50 [1] was less than 100 nM and the IC50 [2] was less than 100 nM.
In the case of `Cc1ncc2sc(N3CCN(S(=O)(=O)c4ccc(OC(F)(F)F)cc4)[C@@H](C(=O)NCc4ccc(OC(F)F)cc4)C3)nc2n1` [Example 942, (R)-4-(5-methyl-thiazolo[4,5-d]pyrimidin-2-yl)-1-(4-trifluoromethoxy-benzenesulfonyl)-piperazine-2-carboxylic acid 4-difluoromethoxy-benzylamide], the IC50 [1] is reported as less than 100 nM and the IC50 [2] is reported as less than 100 nM.
